In patent publication US11008572B2, “Methods and compositions for modulating splicing” (SKYHAWK THERAPEUTICS, INC., priority 2017, dated 2021):
Like-named read-outs stand apart in the source and are kept apart here.

What was measured:
A673 cells = test: Dose-response cell proliferation, crystal violet assay, 72 h; type: cell-based; conditions: ratio of IC50 in NHDF cells to IC50 in A673 cells
Experimental: Small molecule splicing modulators were tested in a dose-response assay using A673 cells and NHDF cells.
A673 cells or NHDF cells were first plated in 96-well plastic tissue culture plates (10,000 cells per well). The cells were treated with vehicle alone (DMSO), or increasing concentrations of SMSM compounds for 72 h. Following treatment, cell proliferation was determined using a crystal violet assay. The relative cell proliferation at each concentration was determined.

A-673 cells = test: Cell viability, crystal violet staining; type: cell-based; conditions: Homo sapiens
Method in brief: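 Readout is absorbance at 570 nm of crystal violet, taken up in 0.1 M sodium citrate in 50% ethanol after staining with 0.5% dye in 25% methanol. Plates held 5×10^3 cells per well, and compounds were added one day after seeding for 72 hours. Data are relative to vehicle, mean±SE.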

[1] = Maximum tolerable dose study; type: in vivo; conditions: mice, 3 per group
Experimental: Survival of mice after administration of SMSMs after 10 or 11 days was assessed.
Tolerance of the drug treatments was determined by measuring the weight of the mice during the period of drug administration. Body weight was measured prior to tumor inoculation and prior to the treatment administration and then daily. The changes in the final weight of the mice for the SMSM treatments were determined.

[2] = Splicing (IC50), Example 22; type: cell-based; conditions: spliced gene and cells not stated
Experimental: A-673 cell viability […], splicing (IC50) and brain AUC/Plasma AUC of SMSMs were determined. As shown in the tables below SMSMs had high CNS exposure.

[3] = tested on: FOXM1^A2 mRNA and FOXM1^BC mRNA; test: Splicing assay (FOXM1), qPCR of isoform mRNAs; type: cell-based
Method in brief: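 Cells (20,000/well) treated at plating with compound, 8-point 4-fold series from 10 μM, 0.2% DMSO, 24 h at 37° C. Isoform mRNAs quantified by RT-qPCR against plasmid standards, normalized to PPIA and DMSO control; isoform ratio computed per concentration.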

SMN2^Δ7 mRNA = test: SMN2 splicing assay, real-time quantitative PCR, SMA type I patient cells (GM03813); type: cell-based; conditions: Homo sapiens, 24 hours
Experimental: (§1) Various cells lines were treated with the SMSMs described herein. RNA was then isolated, cDNA synthesized, qPCR performed and the levels of various mRNA targets of the SMSMs were determined. In some instances, RNA was isolated, cDNA synthesized, qPCR performed and the levels of mRNA isoforms in the various cell samples were determined.
(§2) SMA type I patient cells (GM03813 (Coriell))
(§3) On the day of the experiment, a 96-well plate was seeded with the cell lines of interest. The cells were diluted with full growth media to a concentration of 2.0×10^5 cells/mL and 100 μL of cells were added to each well (20,000 cells per well). The cells were treated with a compound immediately after plating.
(§4) The compounds were then added to the cell plate using the HP compound dispenser. In the initial experiment, a top concentration of 10 μM and an 8 point 4-fold dilution scheme was used. The stock compounds were made at a concentration of 5 mM, and the DMSO concentration was set to 0.2%. DMSO was used to normalize all the compound-containing wells and the untreated cells.
(§5) The treated cells were incubated at 37° C. in a 5% CO2 incubator for the desired amount of time. Plates were placed in a plastic bag with a wet paper towel to prevent evaporation.
(§6) RNA was isolated using the Cells to CT kit (ThermoFisher, AM1728). The cells were washed once with 100 μL cold PBS. 50 μL of lysis buffer was added to each well/tube (49.5 μL lysis buffer+0.5 μL DNase I per well/tube). The lysis reaction was mixed and incubated at room temperature for 5 minutes. 5 μL of stop solution was added directly into each cell lysis reaction and mixed by pipetting up and down 5 times. The plates/tubes were incubated at room temperature for 2 minutes then placed on ice if the cDNA synthesis was to be performed immediately. Otherwise, the plates/tubes were stored at −80° C.
(§7) cDNA synthesis reactions were then performed. 40 μL RT master mix was added to PCR tubes or plate wells. 10 μL of RNA was added to each tube/well. The RT thermal cycler program was then run and tubes or plate wells were incubated at 37° C. for 1 hour, then at 95° C. for 5 minutes to deactivate the enzyme.
(§8) The qPCR was performed using a QuantStudio 6instrument (ThermoFisher) and the following cycling conditions and according to the tables below. All samples and standards were analyzed in triplicate. Cycle 1: 2 minutes at 50° C. Cycle 2: 10 minutes at 95′C. Cycle 3 (repeat 40 times): 15 seconds at 95° C., 1 minute at 60° C.
(§9) The determined SMN2^Δ7 and SMN2^FL quantities were then be used to determine the SMN2^Δ7:SMN2^FL ratio at the various compound concentrations. The PPIA quantities were used in the normalization to account of cell proliferation effects of the compounds.
(§10) An assay to measure the SMN2^FL mRNA and SMN2^Δ7 mRNA simultaneously in cell wells was performed. The RNA values were measured relative to DMSO control and also included a housekeeping gene, PPIA to ensure data was consistent. The mRNA values were measured after 24 hours of incubation with the SMSM compounds.
(§11) Additionally, to monitor expression levels of SMN2 splice variant using real-time quantitative PCR, SMA type I patient cells (GM03813 (Coriell)) were plated at 5,000 cells/well in 200 μl Dulbecco's modified Eagle's medium (DMEM) with GlutaMAX and 10% fetal bovine serum (FBS) (Life Technologies, Inc.) in 96-well plates, and incubated for 6 hours in a cell culture incubator. Cells were then treated with SMSMs at different concentrations (0.5% DMSO) in duplicate for 24 hours. After removal of the supernatant, cells were lysed in Cells-To-Ct lysis buffer (Life Technologies, Inc.) according to the manufacturer's recommendations. The mRNA levels of SMN2 FL, SMN2 A7 were quantified using Taqman-based RT-qPCR and SMN2-specific primers and probes. The SMN2 forward and reverse primers were each used at a final concentration of 0.4 μM. The SMN2 probe was used at a final concentration of 0.1 μM. […]

SMN2^FL mRNA = test: as above; type: cell-based; conditions: Homo sapiens, 24 hours
Experimental: as §1, §2, §3, §4, §5, §6, §7, §8, §9, §10, §11

[4] = A673, cell viability, read-out: A-673 IC50 (nM) Cell viability
[5] = A673, read-out: A-673 cell viability (IC50)
[6] = FoxM1 BC mRNA decrease (exon included), read-out: Splice IC50 (nM) FoxM1 BC mRNA decrease (exon included)
[7] = Homo sapiens, A673, 24 h, A-673 cells, 24 hours, table does not say EC50 or IC50, read-out: FOXM1
[8] = Homo sapiens, A-375, 24 h, A-375 cells, 24 hours, table does not say EC50 or IC50, read-out: FOXM1
[9] = Homo sapiens, Hep3B, 24 h, Hep-3B cells, 24 hours, table does not say EC50 or IC50, read-out: FOXM1
[10] = Homo sapiens, K562, 24 h, K-562 cells, 24 hours, table does not say EC50 or IC50, read-out: FOXM1
[11] = Homo sapiens, MDA-MB-468, 24 h, MDA-MB-468 cells, 24 hours, table does not say EC50 or IC50, read-out: FOXM1
[12] = Homo sapiens, NCI-H358, 24 h, NCI-H358 cells, 24 hours, table does not say EC50 or IC50, read-out: FOXM1
[13] = Homo sapiens, PANC-1, 24 h, PANC-1 cells, 24 hours, table does not say EC50 or IC50, read-out: FOXM1
[14] = Homo sapiens, PC-3, 24 h, PC-3 cells, 24 hours, table does not say EC50 or IC50, read-out: FOXM1
[15] = Homo sapiens, U-87 MG, 24 h, U-87MG cells, 24 hours, table does not say EC50 or IC50, read-out: FOXM1
[16] = read-out: Splice EC50 (nM) FoxM1 A mRNA increase (exon excluded)
[17] = A673, cell viability, read-out: A-673 IC50 (nM), Cell viability
[18] = 24 h, FoxM1 BC mRNA decrease (exon included), 0.1-1000 nM, 24 hours, read-out: Splice IC50 (nM), FoxM1 BC mRNA decrease (exon included)
[19] = FoxM1 A mRNA increase (exon excluded), 0.1-1000 nM, 24 hours, read-out: Splice EC50 (nM), FoxM1 A mRNA increase (exon excluded)

SMILES	Ratio NHDF/A673 IC50 (A673 cells)	IC50 (A-673 cells; [4]) [nM]	IC50 (A-673 cells; [5]) [nM]	IC50 [2] [nM]	IC50 [3, 6] [nM]	EC50 [3, 16] [nM]	IC50 (A-673 cells; [17]) [nM]	IC50 [3, 18] [nM]	EC50 [3, 19] [nM]	also measured
CC(/C=C/C(=O)NO)=C\[C@@H](C)C(=O)c1ccc(N(C)C)cc1 [Trichostatin A]	≤10	–	–	–	–	–	–	–	–	–
CN(c1ccc(-c2cc(F)c(-c3cn[nH]c3)cc2O)nn1)[C@H]1C[C@]2(C)CC[C@](C)(C1)N2 [compound 167, 2-(6-(((1R,3s,5S)-1,5-dimethyl-8-azabicyclo[3.2.1]octan-3-yl)(methyl)amino)pyridazin-3-yl)-4-fluoro-5-(1H-pyrazol-4-yl)phenol]	>2,500	< 10	< 0.5	< 1	< 10	< 10	–	–	–	Outcome ([1]; IP 0.1 mg/kg BIDx12): All survived; Outcome ([1]; IP 0.3 mg/kg BIDx12): All survived; Outcome ([1]; IP 1 mg/kg QDx12): All survived; Outcome ([1]; PO 5 mg/kg QDx12): All survived; IC50 [3, 7]: < 1 nM; IC50 [3, 8]: < 1 nM; IC50 [3, 9]: 11 to 100 nM; IC50 [3, 10]: 1 to 10 nM; IC50 [3, 11]: 1 to 10 nM; IC50 [3, 12]: < 1 nM; IC50 [3, 13]: 11 to 100 nM; IC50 [3, 14]: 11 to 100 nM; IC50 [3, 15]: 11 to 100 nM
CN(c1ccc(-c2ccc(-c3ccn(C)c(=O)c3)cc2O)nn1)[C@H]1C[C@]2(C)CC[C@](C)(C1)N2 [compound 168, 4-(4-(6-(((1R,3s,5S)-1,5-dimethyl-8-azabicyclo[3.2.1]octan-3-yl)(methyl)amino)pyridazin-3-yl)-3-hydroxyphenyl)-1-methylpyridin-2(1H)-one]	>500	< 10	≤ 5	< 1	< 10	> 1000	–	–	–	IC50 [3, 7]: 1 to 10 nM; IC50 [3, 8]: 1 to 10 nM; IC50 [3, 9]: 101 to 200 nM; IC50 [3, 10]: 11 to 100 nM; IC50 [3, 11]: 11 to 100 nM; IC50 [3, 12]: 1 to 10 nM; IC50 [3, 13]: 101 to 200 nM; IC50 [3, 14]: 11 to 100 nM; IC50 [3, 15]: 11 to 100 nM
CN(c1ccc(-c2cc(F)c(-c3ccn(C)c(=O)c3)cc2O)nn1)[C@H]1C[C@]2(C)CC[C@](C)(C1)N2 [compound 169, 4-(4-(6-(((1R,3s,5S)-1,5-dimethyl-8-azabicyclo[3.2.1]octan-3-yl)(methyl)amino)pyridazin-3-yl)-2-fluoro-5-hydroxyphenyl)-1-methylpyridin-2(1H)-one]	–	< 10	≤ 5	< 1	< 10	> 1000	–	–	–	–
Oc1cc(-n2ccnc2)ccc1-c1ccc(O[C@@H]2C[C@H]3CC[C@@H](C2)N3)nn1 [compound 245, 2-(6-(((1R,3s,5S)-8-azabicyclo[3.2.1]octan-3-yl)oxy)pyridazin-3-yl)-5-(1H-imidazol-1-yl)phenol]	–	–	–	30	–	–	501 to 1000	101 to 250	10 to 100	–
Oc1cc(-n2nccn2)ccc1-c1ccc(O[C@@H]2C[C@H]3CC[C@@H](C2)N3)nn1 [compound 251, 2-(6-(((1R,3s,5S)-8-azabicyclo[3.2.1]octan-3-yl)oxy)pyridazin-3-yl)-5-(2H-1,2,3-triazol-2-yl)phenol]	–	–	–	150	–	–	251 to 500	101 to 250	10 to 100	–
Cc1nnn(-c2ccc(-c3ccc(O[C@@H]4C[C@H]5CC[C@@H](C4)N5)nn3)c(O)c2)n1 [compound 258, 2-(6-(((1R,3s,5S)-8-azabicyclo[3.2.1]octan-3-yl)oxy)pyridazin-3-yl)-5-(5-methyl-2H-tetrazol-2-yl)phenol]	–	–	–	149	–	–	251 to 500	101 to 250	10 to 100	–
COc1cc(-c2ccc(-c3ccc(N(C)[C@@H]4C[C@H]5CCC[C@@H](C4)N5)nn3)c(O)c2)ccn1 [compound 289, 2-(6-(((1R,3s,5S)-9-azabicyclo[3.3.1]nonan-3-yl)(methyl)amino)pyridazin-3-yl)-5-(2-methoxypyridin-4-yl)phenol]	–	–	–	–	–	–	< 10	–	–	IC50 (SMN2^Δ7 mRNA): 4 nM; EC50 (SMN2^FL mRNA): 4 nM
